Experimental data: US8178530B2, “Imidazolopyrazine compounds useful for the treatment of degenerative and inflammatory diseases” (Janssen Pharmaceutica NV, priority 2006, dated 2012)

Experiments:
[1] = molecular target: T1, MAPKAPK5 (Homo sapiens, UniProt Q8IW41); assay: MAPKAP-K5 assay (FlashPlate, 33P-ATP); assay type: biochemical; settings: 0.6 μM ATP, 30 minutes at room temperature
T1 construct: 1 mU MAPKAP-K5
T1 sequence (Q8IW41 1-473): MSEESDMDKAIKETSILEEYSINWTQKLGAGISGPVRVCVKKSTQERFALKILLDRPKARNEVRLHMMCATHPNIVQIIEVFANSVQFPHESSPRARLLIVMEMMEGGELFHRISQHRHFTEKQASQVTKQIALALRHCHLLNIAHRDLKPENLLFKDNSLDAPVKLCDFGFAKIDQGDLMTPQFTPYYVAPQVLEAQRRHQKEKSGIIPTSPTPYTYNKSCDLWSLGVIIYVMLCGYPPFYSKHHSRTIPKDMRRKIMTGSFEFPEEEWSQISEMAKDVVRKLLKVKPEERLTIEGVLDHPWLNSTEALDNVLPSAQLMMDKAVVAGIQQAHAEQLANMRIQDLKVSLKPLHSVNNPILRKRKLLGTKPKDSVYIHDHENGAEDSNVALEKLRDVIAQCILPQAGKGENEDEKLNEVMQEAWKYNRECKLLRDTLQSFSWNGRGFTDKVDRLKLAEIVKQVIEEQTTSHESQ
Experimental: 3 μM MAPKAP-K5 peptide substrate

[2] = test system: MMP1 expression by SFs; assay: 'MMP assay': MMP1 expression by 'complex trigger' activated synovial fibroblasts (MMP1 ELISA); assay type: cell-based, human; settings: Homo sapiens, Fibroblast, RASFs, 48 hrs
Experimental: A 384-well format ELISA for measurement of MMP1 is developed. Various primary antibodies are tested, as well as various ELISA protocols. The following protocol is developed and validated to measure MMP1 levels in SF supernatant in 384 well plates: white Lumitrac 600 384 well plates (Greiner) are coated with 2 μg/mL anti-MMP1 antibody MAB1346 (Chemicon). The antibody is diluted in buffer 40 (1.21 g Tris base (Sigma), 0.58 g NaCl (Calbiochem) and 5 ml 10% NaN3 (Sigma) in 1 L milliQ water and adjusted to pH 8.5). After overnight incubation at 4° C., plates are washed with PBS (80 g NaCl, 2 g KCl (Sigma), 11.5 g Na2HPO4.7H2O and 2 g KH2PO4 in 10 L milliQ; pH 7.4) and blocked with 100 μL/well Casein buffer (2% Casein (VWR International) in PBS). Next day, casein buffer is removed from ELISA plates and replaced by 50 μL/well EC buffer (4 g casein, 2.13 g Na2HPO4 (Sigma), 2 g bovine albumin (Sigma), 0.69 g NaH2PO4.H2O (Sigma), 0.5 g CHAPS (Roche), 23.3 g NaCl, 4 mL 0.5 M EDTA pH 8 (Invitrogen), 5 mL 10% NaN3 in 1 L milliQ and adjusted to pH 7.0). 0.25 mM DTT (Sigma) is added to the thawed samples plates. After removal of the EC buffer, 20 μL of sample is transferred to the ELISA plates. After overnight incubation at 4° C. plates are washed twice with PBS and once with PBST (PBS with 0.05% Tween-20 (Sigma)) and incubated with 35 μL/well biotinylated anti-MMP1 antibody solution (R&D). This secondary antibody is diluted in buffer C (0.82 g NaH2PO4.H2O, 4.82 g Na2HPO4, 46.6 g NaCl, 20 g bovine albumin and 4 mL 0.5M EDTA pH 8 in 2 L milliQ and adjusted to pH 7.0) at a concentration of 5 μg/mL. After 2 h of incubation at RT, plates are washed as described above and incubated with 50 μL/well streptavidin-HRP conjugate (Biosource). Streptavidin-HRP conjugate is diluted in buffer C at a concentration of 0.25 μg/mL. After 45 min, plates are washed as described above and incubated for 5 min with 50 μL/well BM Chem ELISA Substrate (Roche). Readout is performed on the Luminoscan Ascent Luminometer (Labsystems) with an integration time of 200 msec or with an Envision reader (Perkin Elmer).
The increase of MMP1 expression by SFs upon treatment with cytokines relevant in the field of RA (TNF-α, IL1β and OSM) or a combination thereof is shown in FIG. 2 as white bars. For this experiment, SFs are seeded in 96 well plates, 3,000 cells/well. 24 h later, the medium is changed to M199 medium supplemented with 1% FBS. One day after the medium change, cytokines or combinations thereof are added to the cultures, each cytokine being added to a final concentration of 25 ng/mL. 72 h after cytokine addition, the supernatant is collected and processed in the MMP1 ELISA as described in the protocol given above. In parallel with this experiment, SFs are triggered, using the same protocol, with the supernatant of THP1 cells (2-fold diluted in M199+1% FBS) treated with the same cytokines or combinations of cytokines for 48 h in M199 medium+1% FBS. The induction of the MMP1 expression by SFs triggered with the supernatants of TNF-α-treated THP1 cells is stronger (>4.5 fold induction) as compared to the SFs triggered with recombinant TNF-α alone (3-fold induction) and almost equals the 5-fold induction obtained by a mixture of 3 purified cytokines (TNF-α, IL1βb, OSM). […] As the role of TNF-α in the RA pathogenesis is validated (TNF-α-blockers such as Infliximab and Etanercept show some efficacy in the treatment of RA patients) and the THP-1 cells are representative for monocytes/macrophages present in the joint of RA patients, the TNF-α-based trigger mixture prepared by contacting THP-1 cells with TNF-α will contain factors present in the joints of RA patients and subsequently is relevant to RA. This TNF-α-based complex trigger, further referred to as the ‘complex trigger’, will further be used as basis for the ‘MMP assay’.
Dexamethasone is shown to dose-dependently reduce amounts of MMP1 produced by complex trigger activated SFs. […]

## CCN(CCO)c1ccc(Nc2ncc(-c3cccc(C(N)=O)c3)n3ccnc23)cc1 [Compound 2]
[1]
  IC50: > 1 µM
[2]
  EC50: > 1 µM

## CCN(CCO)c1ccc(Nc2ncc(-c3ccc(O)cc3C)n3ccnc23)cc1 [Compound 3]
[1]
  IC50: > 1 µM

## CCN(CCO)c1ccc(Nc2ncc(-c3ccc(C(N)=O)cc3)n3ccnc23)cc1 [Compound 4]
[1]
  IC50: > 1 µM
[2]
  EC50: 0.101 to 0.5 µM

## CCN(CCO)c1ccc(Nc2ncc(-c3ccc(O)cc3)n3ccnc23)cc1 [Compound 5]
[1]
  IC50: > 1 µM
[2]
  EC50: 0.101 to 0.5 µM

## CCN(CCO)c1ccc(Nc2ncc(-c3ccc(N)cc3)n3ccnc23)cc1 [Compound 6]
[1]
  IC50: > 1 µM
[2]
  EC50: > 1 µM

## CCN(CCO)c1ccc(Nc2ncc(-c3cccc(N)c3)n3ccnc23)cc1 [Compound 7]
[1]
  IC50: > 1 µM
[2]
  EC50: > 1 µM

## c1cn2c(-c3cn[nH]c3)cnc(NCc3ccc(N4CCOCC4)cc3)c2n1 [Compound 8]
[1]
  IC50: > 1 µM

## CCN(CC)c1ccc(Nc2ncc(-c3cn[nH]c3)n3ccnc23)cc1 [Compound 9]
[1]
  IC50: 0.501 to 1 µM
[2]
  EC50: > 1 µM

## NC(=O)c1cccc(Nc2ncc(-c3cn[nH]c3)n3ccnc23)c1 [Compound 10]
[1]
  IC50: > 1 µM
[2]
  EC50: > 1 µM

## CCN(CCO)c1ccc(Nc2ncc(-c3cn[nH]c3)n3ccnc23)c(C)c1 [Compound 12]
[1]
  IC50: > 1 µM
[2]
  EC50: > 1 µM

## Nc1ccc(Nc2ncc(-c3cn[nH]c3)n3ccnc23)cc1 [Compound 15]
[1]
  IC50: > 1 µM
[2]
  EC50: > 1 µM

## COc1cccc(Nc2ncc(-c3cn[nH]c3)n3ccnc23)c1 [Compound 16]
[1]
  IC50: > 1 µM
[2]
  EC50: > 1 µM

## Fc1ccc(Nc2ncc(-c3cn[nH]c3)n3ccnc23)cc1Cl [Compound 17]
[1]
  IC50: > 1 µM
[2]
  EC50: > 1 µM

## NC(=O)c1ccc(-c2cnc(Nc3ccc(N)cc3)c3nccn23)cc1 [Compound 18]
[1]
  IC50: > 1 µM
[2]
  EC50: > 1 µM

## COc1cccc(Nc2ncc(-c3ccc(C(N)=O)cc3)n3ccnc23)c1 [Compound 19]
[1]
  IC50: > 1 µM
[2]
  EC50: 0.501 to 1 µM

## COC(=O)c1cccc(Nc2ncc(-c3cn[nH]c3)n3ccnc23)c1 [Compound 20]
[1]
  IC50: > 1 µM
[2]
  EC50: > 1 µM

## c1cn2c(-c3ccc4[nH]ccc4c3)cnc(Nc3ccc(N4CCOCC4)cc3)c2n1 [Compound 21]
[1]
  IC50: > 1 µM
[2]
  EC50: > 1 µM

## CC(C)(C)OC(=O)c1ccc(Nc2ncc(-c3cn[nH]c3)n3ccnc23)cc1 [Compound 22]
[1]
  IC50: > 1 µM
[2]
  EC50: > 1 µM

## O=C(O)c1ccc(Nc2ncc(-c3cn[nH]c3)n3ccnc23)cc1 [Compound 23]
[1]
  IC50: > 1 µM
[2]
  EC50: > 1 µM

## NC(=O)Cn1cc(-c2cnc(Nc3ccc(N4CCOCC4)cc3)c3nccn23)cn1 [Compound 24]
[1]
  IC50: > 1 µM
[2]
  EC50: > 1 µM

## O[C@H]1CC[C@H](Nc2ncc(-c3cn[nH]c3)n3ccnc23)CC1 [Compound 25]
[1]
  IC50: > 1 µM
[2]
  EC50: > 1 µM

## CN1CCN(c2ccc(Nc3ncc(-c4ccc(C(N)=O)cc4)n4ccnc34)cc2)CC1 [Compound 26]
[1]
  IC50: 0.501 to 1 µM

## c1cn2c(-c3cn[nH]c3)cnc(Nc3ccc4[nH]ccc4c3)c2n1 [Compound 27]
[1]
  IC50: 0.501 to 1 µM
[2]
  EC50: > 1 µM

## NC(=O)c1ccc(-c2cnc(Nc3ccc4[nH]ccc4c3)c3nccn23)cc1 [Compound 28]
[1]
  IC50: > 1 µM
[2]
  EC50: 0.501 to 1 µM

## NS(=O)(=O)c1ccc(-c2cnc(Nc3ccc(N4CCOCC4)cc3)c3nccn23)cc1 [Compound 29]
[1]
  IC50: > 1 µM
[2]
  EC50: > 1 µM

## CS(=O)(=O)Nc1ccc(Nc2ncc(-c3cn[nH]c3)n3ccnc23)cc1 [Compound 30]
[1]
  IC50: 0.501 to 1 µM
[2]
  EC50: > 1 µM

## CC(=O)Nc1ccc(Nc2ncc(-c3cn[nH]c3)n3ccnc23)cc1 [Compound 31]
[1]
  IC50: 0.501 to 1 µM
[2]
  EC50: > 1 µM

## Cc1cc(Nc2ncc(-c3cn[nH]c3)n3ccnc23)ccc1C(N)=O [Compound 33]
[1]
  IC50: > 1 µM
[2]
  EC50: > 1 µM

## N#Cc1ccc(Nc2ncc(-c3cn[nH]c3)n3ccnc23)cc1Cl [Compound 34]
[1]
  IC50: > 1 µM
[2]
  EC50: 0.501 to 1 µM

## NC(=O)c1ccc(Nc2ncc(-c3cn[nH]c3)n3cc(Br)nc23)cc1 [Compound 37]
[1]
  IC50: > 1 µM
[2]
  EC50: > 1 µM

## NC(=O)c1ccc(Nc2ncc(-c3cn[nH]c3)n3ccnc23)nc1 [Compound 38]
[1]
  IC50: > 1 µM
[2]
  EC50: > 1 µM

## O=C(O)c1ccc(-c2cnc(Nc3ccc(N4CCOCC4)cc3)c3nccn23)cc1F [Compound 39]
[1]
  IC50: > 1 µM
[2]
  EC50: > 1 µM

## Nc1cc(C(=O)O)ccc1-c1cnc(Nc2ccc(N3CCOCC3)cc2)c2nccn12 [Compound 40]
[1]
  IC50: > 1 µM
[2]
  EC50: > 1 µM

## c1cncc(Nc2ncc(-c3cn[nH]c3)n3ccnc23)c1 [Compound 42]
[1]
  IC50: > 1 µM
[2]
  EC50: > 1 µM

## CN1CCN(c2ccc(Nc3ncc(-c4ccc(C(=O)O)cc4)n4ccnc34)cc2)CC1 [Compound 43]
[1]
  IC50: > 1 µM
[2]
  EC50: > 1 µM

## O=C(O)c1ccc(-c2cnc(Nc3ccc(C(=O)NCc4cccnc4)cc3)c3nccn23)cc1 [Compound 44]
[1]
  IC50: > 1 µM
[2]
  EC50: > 1 µM

## CCN(CC)CCNC(=O)c1ccc(Nc2ncc(-c3ccc(C(N)=O)cc3)n3ccnc23)cc1 [Compound 46]
[1]
  IC50: > 1 µM
[2]
  EC50: > 1 µM

## CCN(CC)CCNC(=O)c1ccc(Nc2ncc(-c3ccc(C(=O)O)cc3)n3ccnc23)cc1 [Compound 47]
[1]
  IC50: > 1 µM
[2]
  EC50: > 1 µM

## CCN(CC)CCNC(=O)c1ccc(Nc2ncc(-c3cn[nH]c3)n3ccnc23)cc1OC [Compound 48]
[1]
  IC50: > 1 µM
[2]
  EC50: > 1 µM

## CCc1cnc2c(Nc3ccc(N4CCOCC4)cc3)ncc(-c3cc[nH]c(=O)c3)n12 [Compound 180]
[1]
  IC50: > 1 µM

## COc1cc(Nc2ncc(-c3cn[nH]c3)n3ccnc23)ccc1C(=O)NCc1ccc(C)nc1 [Compound 184, 2-Methoxy-N-(6-methylpyridin-3-ylmethyl)-4-[5-(1H-pyrazol-4-yl)imidazo[1,2-a]pyrazin-8-ylamino]benzamide]
[2]
  EC50: 0.101 to 0.5 µM

## CCc1cnc2c(Nc3ccc(N4CCOCC4)cc3)ncc(-c3cn[nH]c3)n12 [Compound 189, [3-Ethyl-5-(1H-pyrazol-4-yl)imidazo[1,2-a]pyrazin-8-yl]-(4-morpholin-4-yl-phenyl)amine]
[2]
  EC50: 0.501 to 1 µM

## CC(C)N1CCN(c2ccc(Nc3ncc(-c4cc5c(s4)C(=O)NC5)n4ccnc34)cc2)CC1 [Compound 228]
[1]
  IC50: 0.101 to 0.5 µM

## O=C1NCc2cc(-c3cnc(Nc4cncnc4)c4nccn34)ccc21 [Compound 230]
[1]
  IC50: 0.101 to 0.5 µM
